Data from PubChem BioAssay (NCI).
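The concentration for 50% growth inhibition is given as GI50. The concentration for full growth arrest is given as TGI.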

Key:
Assay in all cases: growth of human tumour cells (NCI), 384-well format
[1] = test system: A498 renal
[2] = test system: OVCAR-5 ovarian
[3] = test system: SR leukemia
[4] = test system: NCI-H522 lung
[5] = test system: KM12 colon
[6] = test system: MOLT-4 leukemia
[7] = test system: UACC-257 melanoma
[8] = test system: NCI-H322M lung
[9] = test system: HOP-62 NSCLC
[10] = test system: BT-549 breast
[11] = test system: SNB-19 CNS
[12] = test system: M14 melanoma
[13] = test system: SK-MEL-2 melanoma
[14] = test system: HCT-15 colon
[15] = test system: EKVX NSCLC
[16] = test system: MDA-MB-468 breast
[17] = test system: MDA-MB-435 melanoma
[18] = test system: SF-539 CNS
[19] = test system: MALME-3M melanoma
[20] = test system: LOX IMVI melanoma
[21] = test system: T-47D breast
[22] = test system: SF-295 CNS
[23] = test system: K-562 leukemia
[24] = test system: DU-145 prostate
[25] = test system: IGROV1 ovarian
[26] = test system: UO-31 renal
[27] = test system: HS 578T breast
[28] = test system: CAKI-1 renal
[29] = test system: NCI-H460 NSCLC
[30] = test system: HCT-116 colon
[31] = test system: UACC-62 melanoma
[32] = test system: ACHN renal
[33] = test system: HCC-2998 colon
[34] = test system: NCI-H226 lung
[35] = test system: OVCAR-3 ovarian
[36] = test system: SK-OV-3 ovarian
[37] = test system: MCF7 breast
[38] = test system: SNB-75 CNS
[39] = test system: NCI-H23 lung
[40] = test system: HL-60(TB) leukemia
[41] = test system: 786-0 renal
[42] = test system: COLO 205 colon
[43] = test system: OVCAR-4 ovarian
[44] = test system: SK-MEL-5 melanoma
[45] = test system: A549 NSCLC
[46] = test system: MDA-MB-231 breast
[47] = test system: CCRF-CEM leukemia
[48] = test system: SF-268 CNS
[49] = test system: HOP-92 NSCLC
[50] = test system: NCI/ADR-RES ovarian
[51] = test system: SN12C renal
[52] = test system: U251 glioblastoma
[53] = test system: PC-3 prostate
[54] = test system: RXF 393 renal
[55] = test system: SW-620 colon
[56] = test system: SK-MEL-28 melanoma
[57] = test system: HT29 colon
[58] = test system: RPMI-8226 leukemia
[59] = test system: TK-10 renal
[60] = test system: OVCAR-8 ovarian

COc1c(C)cnc(Cn2cnc3c(Cl)nc(N)nc32)c1C
GI50 [1]: 381 nM
TGI [1]: > 100000 nM
GI50 [2]: 264 nM
TGI [2]: > 100000 nM
GI50 [3]: 16.3 nM
TGI [3]: 31.1 nM
GI50 [4]: 61.7 nM
TGI [4]: 313 nM
GI50 [5]: 52.3 nM
TGI [5]: 14000 nM
GI50 [6]: 36.2 nM
TGI [6]: 123 nM
GI50 [7]: 651 nM
TGI [7]: 34600 nM
GI50 [8]: 167 nM
TGI [8]: 80100 nM
GI50 [9]: 112 nM
TGI [9]: 1150 nM
GI50 [10]: 50.8 nM
TGI [10]: 269 nM
GI50 [11]: 262 nM
TGI [11]: 5620 nM
GI50 [12]: 287 nM
TGI [12]: 18100 nM
GI50 [13]: 482 nM
TGI [13]: 783 nM
GI50 [14]: 59.6 nM
TGI [14]: 13100 nM
GI50 [15]: 319 nM
TGI [15]: 5030 nM
GI50 [16]: 62.2 nM
TGI [16]: 276 nM
GI50 [17]: 154 nM
TGI [17]: 53700 nM
GI50 [18]: 97.2 nM
TGI [18]: 389 nM
GI50 [19]: 189 nM
TGI [19]: 438 nM
GI50 [20]: 115 nM
TGI [20]: 245 nM
GI50 [21]: 339 nM
TGI [21]: 14800 nM
GI50 [22]: 134 nM
TGI [22]: 654 nM
GI50 [23]: 55.8 nM
TGI [23]: 621 nM
GI50 [24]: 40.7 nM
TGI [24]: 1410 nM
GI50 [25]: 55.9 nM
TGI [25]: 626 nM
GI50 [26]: 74.5 nM
TGI [26]: > 100000 nM
GI50 [27]: 307 nM
TGI [27]: 1410 nM
GI50 [28]: 470 nM
TGI [28]: 2870 nM
GI50 [29]: 34 nM
TGI [29]: 123 nM
GI50 [30]: 194 nM
TGI [30]: > 100000 nM
GI50 [31]: 145 nM
TGI [31]: 711 nM
GI50 [32]: 163 nM
TGI [32]: 38000 nM
GI50 [33]: 92.3 nM
TGI [33]: 438 nM
GI50 [34]: 245 nM
TGI [34]: > 100000 nM
GI50 [35]: 165 nM
TGI [35]: 13800 nM
GI50 [36]: 264 nM
TGI [36]: 5000 nM
GI50 [37]: 51.2 nM
TGI [37]: > 100000 nM
GI50 [38]: 357 nM
TGI [38]: 2080 nM
GI50 [39]: 149 nM
TGI [39]: 500 nM
GI50 [40]: 52.2 nM
TGI [40]: 172 nM
GI50 [41]: 89.4 nM
TGI [41]: 2780 nM
GI50 [42]: 28.6 nM
TGI [42]: 98.1 nM
GI50 [43]: 286 nM
TGI [43]: 27400 nM
GI50 [44]: 59.6 nM
TGI [44]: 16000 nM
GI50 [45]: 73.9 nM
TGI [45]: > 100000 nM
GI50 [46]: 272 nM
TGI [46]: 927 nM
GI50 [47]: 36.9 nM
TGI [47]: 430 nM
GI50 [48]: 133 nM
TGI [48]: 23800 nM
GI50 [49]: 241 nM
TGI [49]: 737 nM
GI50 [50]: 177 nM
TGI [50]: 498 nM
GI50 [51]: 143 nM
TGI [51]: 488 nM
GI50 [52]: 47.3 nM
TGI [52]: 1300 nM
GI50 [53]: 137 nM
TGI [53]: 664 nM
GI50 [54]: 692 nM
TGI [54]: 7520 nM
GI50 [55]: 78.7 nM
TGI [55]: 5030 nM
GI50 [56]: 388 nM
TGI [56]: 16200 nM
GI50 [57]: 61.5 nM
TGI [57]: > 100000 nM
GI50 [58]: 71.5 nM
TGI [58]: 296 nM

CCS(=O)(=O)Nc1ccc(Oc2ccc(F)cc2F)c(-c2cn(C)c(=O)c3[nH]ccc23)c1
GI50 [1]: 21 nM
TGI [1]: 3250 nM
GI50 [3]: < 10 nM
TGI [3]: < 10 nM
GI50 [4]: < 10 nM
TGI [4]: 114 nM
GI50 [5]: 10 nM
TGI [5]: 1270 nM
GI50 [6]: < 10 nM
TGI [6]: 124 nM
GI50 [7]: 12.8 nM
TGI [7]: 1890 nM
GI50 [8]: < 10 nM
TGI [8]: 1610 nM
GI50 [9]: < 10 nM
TGI [9]: 337 nM
GI50 [10]: < 10 nM
TGI [10]: 172 nM
GI50 [11]: 40.7 nM
TGI [11]: 12100 nM
GI50 [12]: 12.7 nM
TGI [12]: 10200 nM
GI50 [14]: < 10 nM
TGI [14]: 1050 nM
GI50 [15]: 397 nM
TGI [15]: 8660 nM
GI50 [16]: 10.4 nM
TGI [16]: 429 nM
GI50 [17]: 140 nM
TGI [17]: 11500 nM
GI50 [18]: 27.2 nM
TGI [18]: 3200 nM
GI50 [19]: 11.5 nM
TGI [19]: 779 nM
GI50 [20]: < 10 nM
TGI [20]: 14.4 nM
GI50 [21]: 24.6 nM
TGI [21]: 1430 nM
GI50 [22]: 120 nM
TGI [22]: 4140 nM
GI50 [23]: < 10 nM
TGI [23]: 1970 nM
GI50 [24]: 174 nM
TGI [24]: 12500 nM
GI50 [25]: < 10 nM
TGI [25]: 196 nM
GI50 [26]: 38.2 nM
TGI [26]: 10300 nM
GI50 [27]: < 10 nM
TGI [27]: 14.5 nM
GI50 [28]: < 10 nM
TGI [28]: 475 nM
GI50 [29]: 30.5 nM
TGI [29]: 2140 nM
GI50 [30]: 11.2 nM
TGI [30]: 1450 nM
GI50 [31]: < 10 nM
TGI [31]: 583 nM
GI50 [32]: 59.7 nM
TGI [32]: 10100 nM
GI50 [33]: < 10 nM
TGI [33]: 40.4 nM
GI50 [34]: < 10 nM
TGI [34]: 796 nM
GI50 [35]: < 10 nM
TGI [35]: 156 nM
GI50 [36]: < 10 nM
TGI [36]: 504 nM
GI50 [59]: < 10 nM
TGI [59]: 384 nM
GI50 [37]: < 10 nM
TGI [37]: 1180 nM
GI50 [38]: 112 nM
TGI [38]: 5400 nM
GI50 [39]: 10.5 nM
TGI [39]: 237 nM
GI50 [40]: < 10 nM
TGI [40]: < 10 nM
GI50 [41]: < 10 nM
TGI [41]: 2120 nM
GI50 [42]: < 10 nM
TGI [42]: 724 nM
GI50 [43]: < 10 nM
TGI [43]: 79.3 nM
GI50 [44]: < 10 nM
TGI [44]: 876 nM
GI50 [45]: 34.6 nM
TGI [45]: 10600 nM
GI50 [46]: < 10 nM
TGI [46]: 2850 nM
GI50 [47]: < 10 nM
TGI [47]: 353 nM
GI50 [48]: 67.4 nM
TGI [48]: 2740 nM
GI50 [49]: 10.9 nM
TGI [49]: 1520 nM
GI50 [50]: 82.6 nM
TGI [50]: 1810 nM
GI50 [51]: 24.8 nM
TGI [51]: 3290 nM
GI50 [52]: 57.1 nM
TGI [52]: 1800 nM
GI50 [53]: 22.3 nM
TGI [53]: 10200 nM
GI50 [60]: < 10 nM
TGI [60]: 131 nM
GI50 [54]: 308 nM
TGI [54]: 2490 nM
GI50 [55]: 174 nM
TGI [55]: 1950 nM
GI50 [56]: 50.2 nM
TGI [56]: 2090 nM
GI50 [57]: < 10 nM
TGI [57]: 11000 nM
GI50 [58]: < 10 nM
TGI [58]: < 10 nM
